In article PMC5228037, “Discovery and Mechanistic Characterization of Selective Inhibitors of H2S-producing Enzyme: 3-Mercaptopyruvate Sulfurtransferase (3MST) Targeting Active-site Cysteine Persulfide” (Scientific Reports, 2017):

Target: T1, recombinant CBS (Rattus norvegicus, UniProt P32232)
T1 construct: GST (N, cleaved yes); made in house; host or cells: E. coli DH5α
T1 sequence (P32232 1-561): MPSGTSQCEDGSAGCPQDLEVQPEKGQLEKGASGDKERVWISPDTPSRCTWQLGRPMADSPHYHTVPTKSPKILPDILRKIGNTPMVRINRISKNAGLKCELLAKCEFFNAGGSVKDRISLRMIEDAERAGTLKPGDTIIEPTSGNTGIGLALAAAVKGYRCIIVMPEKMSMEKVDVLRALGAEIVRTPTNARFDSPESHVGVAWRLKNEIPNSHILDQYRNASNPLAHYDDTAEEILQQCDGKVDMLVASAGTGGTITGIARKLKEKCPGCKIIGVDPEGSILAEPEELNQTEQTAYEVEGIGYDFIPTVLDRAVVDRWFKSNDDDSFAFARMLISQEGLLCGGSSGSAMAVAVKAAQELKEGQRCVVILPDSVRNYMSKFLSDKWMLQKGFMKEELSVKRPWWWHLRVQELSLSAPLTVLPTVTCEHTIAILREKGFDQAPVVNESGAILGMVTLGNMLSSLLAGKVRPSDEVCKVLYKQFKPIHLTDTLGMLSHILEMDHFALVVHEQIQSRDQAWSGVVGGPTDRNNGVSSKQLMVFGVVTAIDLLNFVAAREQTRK
Test: Inhibitory activity towards purified CBS by gas chromatography
Assay type: biochemical
Conditions: 100 μM compound, 10 mM L-cysteine and DL-homocysteine
Experimental: Figure 2 Selectivity assessment of hit compounds for 3MST over other H2S/polysulfides-producing enzymes and rhodanese. (a) 3MST-Inhibitory activity of hit compounds at 10 and 100 μM in cell lysate of 3MST-expressing HEK293 cells. 100 μM 3MP and 100 μM DTT were added to the solution containing 0.1% DMSO as a cosolvent, and the mixture was incubated at 37 °C for 15 min. H2S production was measured by gas chromatography. All data are presented as the mean ± S.D. (100 μM: n = 3 or 4; 10 μM: n = 3). (b) Selectivity assessment of hit compounds at 100 μM towards CBS and CSE. Only DMSO was added to the control sample instead of DMSO solution containing hit compounds. H2S production was monitored by gas chromatography. All data are presented as the mean (n = 3). (c) Detection method for rhodanese activity (Sörbo method). (d) Selectivity assessment of hit compounds towards rhodanese. The results are mean ± S.D. (n = 4, three times). These values were determined based upon the absorbance of [Fe(SCN)3] at 460 nm (Sӧrbo method). Bovine rhodanese 1.3–1.7 units/mL, substrate: 52 mM Na2S2O3, 50 mM KCN, 0.004% (w/v) BSA, 100 μM compound and DMSO 1% (v/v) in 88 mM potassium phosphate buffer (pH 8.6) at room temperature for 5 min incubation. (e) Fluorescence confocal microscopic images of live COS7 cells transfected with 3MST or an empty vector[9] as a control. Cells were incubated with 50 μM SSP4, a fluorescent probe for sulfane sulfur, and 10 μM, 1 μM, 0.5 μM, 0.1 or 0 μM compound 3 in DMEM containing 0.6% DMSO for 30 min, then washed with HBSS and placed in fresh DMEM with 0‒10 μM compound 3 (Pre). 500 μM 3MP was added to the cells and the cells were incubated for 10 min (10 min). (f) Graphic representation of (e). F/F0 was calculated by dividing the fluorescence intensity of cells after addition of 500 μM 3MP (10 min) by that of cells before addition of 500 μM 3MP (Pre), then the mean F/F0 was determined from 5 cells. All data represent the mean ± standard error of the mean (SEM) of three experiments.
GST-tagged rat CSE-HA or rat CBS-HA was expressed in E. coli DH5α as follows. E. coli DH5α transformed with the pGEX-rCSE-HA or pGEX-rCBS-HA plasmid was cultured overnight in LB medium containing 100 μg/mL ampicillin (and 0.3 mM 5-aminolevulinic acid, for CBS) at 37 °C, and the 120 mL culture was inoculated into 2400 mL of LB medium. Further growth of the culture was performed at 37 °C with vigorous shaking until OD600 reached 0.8. IPTG was added to the E. coli DH5α culture at a final concentration of 0.1 mM and incubation was continued at 18 °C. […]

| SMILES | Inhibition of recombinant CBS enzymatic activity (H2S production) | inhibition at 100 µM (read-out: Inhibition of recombinant CBS enzymatic activity (H2S production)) [%] |
| --- | --- | --- |
| Cc1cc(=O)[nH]c(SCC(=O)c2cccc3ccccc23)n1 [compound 3] | almost inactive |  |
| NC(=O)c1ccsc1NC(=O)CSc1nc2ccccc2c(=O)[nH]1 [compound 1] |  | ~25 |
| Cc1sc2nc(SCC(=O)c3ccc(O)cc3O)[nH]c(=O)c2c1C [compound 2] | enhanced H2S production |  |
| O=C(O)c1cccc(NS(=O)(=O)c2ccccc2)c1 [compound 5] | enhancement of H2S production |  |
